In data set [1] the target is T1, PAF (platelet activating factor) receptors (Oryctolagus cuniculus, UniProt G1TEI7).
T1 construct: Blood was drawn via indracardiac puncture from male rabbits; from tissue; host or cells: Platelets from the blood of male rabbits (HY/CR strain, Charles River, Italy)
The experiment in a line: Binding to PAF receptors (3H-PAF displacement in rabbit platelets). The note with it: 50% inhibiting concentration of specific receptor binding, 3H-PAF 0.5 nM, 30 minutes at 25°C. As for the experimental part: The binding of the compounds under examination to rabbit platelet receptors was studied following the procedure disclosed by D. Nunez et al, Eur J. Pharmacol. 123, 197 (1986).
Blood was drawn via indracardiac puncture from male rabbits (HY/CR strain-Charles River, Italy) weighing 2.5-3.0 Kg.
Blood was diluted (1:9) in a ACD (0.8% citric acid, 2.2% trisodium citrate, 2.45% glucose, weight percentages) solution and centrifuged at 100 x g for 15 minutes.
The precipitate was suspended in the incubation buffer at […] platelet/ml concentration, immediately before binding.
The platelet number and possible erythrocyte contamination was controlled with a platelet counter DELCON CA480.
Platelets were incubated in polyethylene tubes with ³H-PAF (0.5 nM) for 30 minutes at 25°C. The test compounds were added to a volume of 200 µl. The final volume was equal to 500 µl. Incubation was stopped by rapid filtration under vacuum through GF/C filters (WHATMAN) washed with (3x3 ml) cold incubation buffer using a Brondel Cell Harvester filtration system. The filters were counted in 8 mL OptiFluor (Packard) using a TRI-CARB 1900 CA-Packard liquid scintillation spectrometer (about 50% counting efficiency).
The percentage of inhibition of the specific binding receptor-radioligand was calculated for each concentration (mean of incubations in triplicate).
The competition curve, the slope of the curve, and the IC₅₀ value (concentration which inhibits 50% of the specific radioligand-receptor binding) were calculated with the "All fit" program (A. De Lean et al., Am. J. Physiol. 235, E97, 1978) runned in a 55-SX IBM computer.

The subject of a further data set is mice. The experiment in a line: Observation of behaviour and death rate in mice (Irwin method). It is filed as in vivo. The note with it: for SYMPTOMS: male mice, 4 animals/dose, n.e. = no effect; for DEATH RATE: mouse, in vivo. The method, then:
The observation of normal behaviour in mice was conducted following the method by S. Irwin, Psychopharmacologia 13, 222 ( 1968). This method allows alterations of some behavioural, neurophysiological and neurovegetative parameters directly detectable by the experimenter to be visualized.
The test was conducted in male mice [Crl;(CD-I)(ICR)BR, Charles River - Italy] weighing 22-25 g, following oral administration of the compounds suspended in carboxymethylcellulosa (0.5% by weight in H₂O) to groups of 4 animals/dose.
The animals were kept under continuous observation for five hours following treatment and twice a day for the subsequent five days.
Death rate was also observed during the whole test period. The initial administered dose was 1,000 mg/kg per os; lower doses were administered following death of some animals or after marked effects at the initial dose were dected.

Data set [2] has as its system PAF-induced platelet aggregation. Briefly: PAF-induced platelet aggregation in platelet rich plasma. It is filed as cell-based, rabbits. The note with it: Oryctolagus cuniculus, 2 min, compound 10^-5M, 2 minutes of incubation, rabbit PRP. The method, then: Blood was collected from male rabbits (HY/Charles River, Italy) by heart puncture using a plastic syringe and transferred immediately into plastic tubes containing 3.8% (by weight) solution of sodium citrate (0.1 ml/ml blood).
PRP (Platelet Rich Plasma) was obtained by plasma centrifugation at 145 x g for 5 minutes at 22°C. Platelet number was determined with a CA 580A (Delcon) "platelet counter". The platelet number was adjusted to the fixed value of […] by adding PPP (Platelet Poor Plasma). PPP was obtained by centrifuging blood at 1600 x g for 10 minutes at 22°C.
(§1) Platelet aggregation was determined photometrically (G.V.R. Born, Nature 194, 927; 1962) with an ELVI 840 aggregometer in plastic tubes under continuous stirring at 1000 rpm.
(§2) Maximal light transmission (100% ) was recorded by reading PPP, while 0% transmission was recorded by reading PRP. The PRP aggregation degree induced by the aggregation factor (PAF) was calculated as percentage of maximal light transmittance obtained with PPP using 250 µL samples of PRP.
(§3) The compounds were dissolved in bidistilled water at the concentration of 10⁻⁵ M and tested after 2 minutes of incubation.
(§4) Aggregation inhibition was calculated as percentage of the value obtained in the presence of the aggregating agent only.

Data set [3] deals with ADP-induced platelet aggregation. Briefly: ADP-induced platelet aggregation in platelet rich plasma. The format is cell-based, rats. The note with it: 2 min, compound 10^-5M, 2 minutes of incubation, rat PRP. As for the experimental part: as §1, §2, §3, §4
Blood was drawn from the abdominal aorta of male rats (Crl:(WI)BR, Charles River, Italy) under barbiturate anaesthesia and quickly transferred into plastic tubes containing 0.1 mL/mL blood of 3.8% (by weight) solution of sodium citrate. PRP was obtained by plasma centrifugation at 115 x g for 5 minutes at 22°C and PPP by centrifugation at 1600 x g for 10 minutes. The final PRP platelet number was adjusted to the fixed value of […] of PRP by adding PPP.
Platelet count was made with a CA580 A(Delcan) platelet counter. The same procedure outlined in the paragraph "PAF aggregation" was followed for the ADP-induced aggregation.

pIC50: −log10 of the molar value.

These results are taken from patent EP0488965A1, “Phthalidilidene derivatives of carnitine and alkanoylcarnitines and pharmaceutical compositions containing them” (Sigma-Tau Industrie Farmaceutiche Riunite S.p.A., priority 1990, dated 1992).

T1 sequence (G1TEI7 1-342): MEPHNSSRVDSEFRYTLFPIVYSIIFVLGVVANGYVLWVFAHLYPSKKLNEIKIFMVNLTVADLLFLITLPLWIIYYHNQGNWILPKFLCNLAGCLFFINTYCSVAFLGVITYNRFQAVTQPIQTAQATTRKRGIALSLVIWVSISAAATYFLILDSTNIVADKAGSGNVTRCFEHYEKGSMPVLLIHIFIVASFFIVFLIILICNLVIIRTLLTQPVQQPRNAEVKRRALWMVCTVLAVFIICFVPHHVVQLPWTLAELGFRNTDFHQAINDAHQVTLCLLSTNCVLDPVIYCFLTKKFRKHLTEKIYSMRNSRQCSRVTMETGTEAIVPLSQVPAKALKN

Take `C[N+](C)(C)C[C@H](O)CC(=O)OC/C=C1\OC(=O)c2ccccc21` [ST 736, (Z)-(3-phtalidylidene)ethyl ester of L-carnitine bromide]: the pIC50 in data set [1] was 5.03. In addition, the SYMPTOMS result in the data set with mice (600 mg/kg per os) was “n.e”; with mice (1000 mg/kg per os), “convulsion, salivation”. In addition, the “DEATH RATE” value in the data set with mice (600 mg/kg) is on record as 0/4; with mice (1000 mg/kg), 3/4.
For `CC(=O)O[C@H](CC(=O)OC/C=C1\OC(=O)c2ccccc21)C[N+](C)(C)C` [ST 739], in that order: 5.28, “n.e”, “jerks”, 0/4 and 2/4.
`CCC(=O)O[C@H](CC(=O)OC/C=C1\OC(=O)c2ccccc21)C[N+](C)(C)C` [ST 768] gave a pIC50 in data set [1] of 5.17. The SYMPTOMS result in the data set on mice (600 mg/kg per os) is “n.e”; with mice (1000 mg/kg per os), “convulsion, salivation diarrhea, lacrimation”. In addition, the “DEATH RATE” value was 0/4 in the data set with mice (600 mg/kg) and 1/4 with mice (1000 mg/kg).
`CC(C)C(=O)O[C@H](CC(=O)OC/C=C1\OC(=O)c2ccccc21)C[N+](C)(C)C` [ST 775] gave a negative logarithm of the IC50 (pIC50) in data set [1] of 5.70. For the same molecule, the SYMPTOMS entry with mice (1000 mg/kg per os) is “n.e”. Moreover, the “DEATH RATE” value in the data set on mice (1000 mg/kg) is recorded as 0/4.
`CC(C)CC(=O)O[C@H](CC(=O)OC/C=C1\OC(=O)c2ccccc21)C[N+](C)(C)C` [ST 776] had a pIC50 in data set [1] of 5.44. Besides, the figures for the inhibition at 10 µM in data set [2] and in data set [3] were 100% and 5%, respectively. The SYMPTOMS entry with mice (600 mg/kg per os) was “n.e”; in the data set on mice (1000 mg/kg per os) it was “convulsion, salivation”. Further, the results for the “DEATH RATE” value in the data set on mice (600 mg/kg) and in the data set on mice (1000 mg/kg) were 0/4 and 2/4, respectively.
Turning to `C[N+](C)(C)C[C@H](O)CC(=O)OC/C=C1\OC(=O)c2cc(Cl)ccc21` [ST 801], in data set [1], the pIC50 was 7.70. Besides, the values for the inhibition at 10 µM in data set [2] and in data set [3] were 97% and 7%, respectively. Further, the SYMPTOMS entry with mice (1000 mg/kg per os) is on record as “salivation”. Further, the “DEATH RATE” value in the data set with mice (1000 mg/kg) was 0/4.
The like results for `CC(C)CC(=O)O[C@H](CC(=O)OC/C=C1\OC(=O)c2cc(Cl)ccc21)C[N+](C)(C)C` [ST 803] were, in that order, 8.18, 72%, 8%, “diarrhea” and 0/4.
The molecule `CC(=O)O[C@H](CC(=O)OC/C=C1\OC(=O)c2cc(Cl)ccc21)C[N+](C)(C)C` [ST 804] showed a pIC50 in data set [1] of 7.72. Besides, the inhibition at 10 µM in data set [2] was 96%; in data set [3] it was 13%. The SYMPTOMS result in the data set on mice (600 mg/kg per os) and in the data set on mice (1000 mg/kg per os) was “salivation” throughout. Besides, the results for the “DEATH RATE” value with mice (600 mg/kg) and in the data set with mice (1000 mg/kg) were 0/4 and 1/4, respectively.
In turn, `CCC(=O)O[C@H](CC(=O)OC/C=C1\OC(=O)c2cc(Cl)ccc21)C[N+](C)(C)C` [ST 805] gave a pIC50 in data set [1] of 7.66. Further, the inhibition at 10 µM was determined as 40% in data set [2] and 10% in data set [3]. Moreover, the SYMPTOMS entry with mice (600 mg/kg per os) and with mice (1000 mg/kg per os) was “salivation” throughout. For the same molecule, the “DEATH RATE” value is 0/4 in the data set with mice (600 mg/kg) and 1/4 in the data set on mice (1000 mg/kg).
For the molecule `CC(C)C(=O)O[C@H](CC(=O)OC/C=C1\OC(=O)c2cc(Cl)ccc21)C[N+](C)(C)C` [ST 806], in data set [1], the pIC50 was 7.74. The inhibition at 10 µM in data set [2] turned out to be 95%; in data set [3], 18%. In addition, the SYMPTOMS result in the data set with mice (600 mg/kg per os) and with mice (1000 mg/kg per os) was “salivation” in each case. Moreover, the “DEATH RATE” value in the data set with mice (600 mg/kg) is recorded as 0/4; with mice (1000 mg/kg) it was 1/4.
